Data as given in patent publication US5096929A, “2-amino-1,2,3,4-tetrahydronaphthalene derivatives with cardiovascular activity, process for their preparation and pharmaceutical compositions containing them” (Chiesi Farmaceutici S.p.A., priority 1989, dated 1992).
Where a name gives a salt, the structure may show the parent alone. Read-outs that look alike come from different tables or passages of the source.

Experiments:
[1] = target: T1, beta-2 adrenergic receptors (Cavia porcellus, UniProt Q8K4Z4); experiment: Isolated guinea-pig trachea: interactions with beta-2 adrenergic receptors (relaxation of carbachol contraction); settings: for EC50: carbachol 3×10^-7 M
T1 construct: Trachea strips were isolated and prepared according to the method described by Emerson J and Machay D; from tissue; host or cells: guinea-pig isolated trachea strips
T1 sequence (Q8K4Z4 whole entry): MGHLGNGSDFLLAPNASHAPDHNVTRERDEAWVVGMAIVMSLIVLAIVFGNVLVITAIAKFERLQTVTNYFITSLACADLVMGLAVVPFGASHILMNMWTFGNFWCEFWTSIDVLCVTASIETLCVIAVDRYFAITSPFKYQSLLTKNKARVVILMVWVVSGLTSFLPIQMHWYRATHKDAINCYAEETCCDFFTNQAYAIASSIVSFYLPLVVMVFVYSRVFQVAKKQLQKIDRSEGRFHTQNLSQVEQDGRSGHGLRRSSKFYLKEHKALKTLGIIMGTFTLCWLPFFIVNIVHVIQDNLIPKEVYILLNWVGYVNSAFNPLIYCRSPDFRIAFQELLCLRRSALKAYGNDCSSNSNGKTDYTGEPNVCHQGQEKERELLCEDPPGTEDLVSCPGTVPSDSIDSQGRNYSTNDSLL
Method: The selectivity of this interaction has been studied by evaluating the effects on beta-2 adrenergic receptors, in the guinea-pig isolated trachea, using CHF 1026 as reference compound.
Isolated guinea-pig trachea: interactions with beta-2 adrenergic receptors
Trachea strips were isolated and prepared according to the method described by Emerson J and Machay D in J Pharm Pharmacol 1979, 31, 798, immersed in Krebs-Henseleit solution (37° C., 95% O2 +5% CO2), subjected to an initial tension of 1 g and contracted with carbachol (3×10^-7 M).
Dose-response curves of CHF 1255 and CHF 1026 were recorded in the absence and in the presence of 10^-6 M propranolol, used as antagonist and added to the bath before the stimulation with carbachol.
The obtained results are shown in Table 2, expressed as potency (EC50 calculated from t he dose--response curve) and intrinsic activity (α, isoproternol=1).

catecholamines release = experiment: Mechanism of cardiostimulant action: catecholamines release; settings: mechanism study
From the text: (§1) The mechanism of the inotropic activity of CHF 1255 has been studied in a series of other tests.
(§2) Studies have excluded the possibility that the cardiostimulant action of the compound is due to catecholamines release, to the stimulation of alpha-adrenergic cardiac receptors, or to the stimulation of histaminergic H1 and H2 receptors.

[2] = test system: histaminergic H2 receptors; experiment: Mechanism of cardiostimulant action: histaminergic H2 receptors; settings: mechanism study
From the text: as §1, §2

[3] = test system: beta-2 adrenergic receptors; experiment: Isolated guinea-pig trachea: interactions with beta-2 adrenergic receptors (relaxation of carbachol contraction); settings: inferred from selective beta-1 agonism
[4] = test system: histaminergic H1 receptors; experiment: Mechanism of cardiostimulant action: histaminergic H1 receptors; settings: mechanism study
From the text: as §1, §2

rabbit isolated aorta = experiment: Rabbit isolated aorta, inhibition of norepinephrine dose-response curve
[5] = test system: arterial rat hind quarter; experiment: Rat perfused hind quarter; vasodilating action; settings: for Emax: Rattus norvegicus, 100% = complete reduction
Method: Rat perfused hind quarter; vasodilating action
The vasodilating effect of CHF 1255 has been evaluated in the arterial rat hind quarter perfused with Krebs-Henseleit solution at constant flow.
The increase of arterial resistance was induced by K^+ -enriched solution (40 mM), norepinephrine (5×10^-6 M) and serotonin (5×10^-7 M).
Papaverine and prazosin, powerful α-blocker vasodilator, were used as reference compounds.
ED40 =dose (moles) decreasing of 40% the contraction induced by the agonist. 100% was considered as the complete recduction of contraction.

phosphodiesterase = experiment: Mechanism of cardiostimulant action: phosphodiesterase inhibition; settings: mechanism study
From the text: as §1, §2

[6] = test system: beta-1 adrenergic receptors; experiment: Isolated rat left atrium: interactions with beta-adrenergic receptors (atenolol antagonism)
Method: Isolated rat left atrium: interactions with beta-adrenercic receptors.
The affinity for beta-1 adrenergic receptors has been evaluated in the rat left atrium as previously described.
In this test, dose-response curves of CHF 1255 were recorded in the absence and in the presence of increasing concentrations (10^-8 to 3×10^-7 M) of the selective beta-1 blocker atenolol.

anesthetized dog = experiment: Anesthetized dog: cardiovascular activity; format: in vivo, Beagle dog; settings: for Hypotensive action / Increase of the cardiac output / Increase of the stroke volume / Reduction of the systemic arterial resistances: i.v. bolus
Method: The interesting hemodynamic properties of CHF 1255 were confirmed in vivo in the anesthetized dog.
Anesthesized dog: cardiovascular activity
Beagle dogs were anesthetized with sodium pentobarbital (30 mg/kg iv) thoracotomized and monitored by recording cardiocirculatory parameters.
CHF 1255 and the reference drugs (amrinone and xamoterol) were administered i.v. in a bolus.
CHF 1255 at the doses of 0.3-1.3 μmoles/kg i.v. confirmed its activity in changing hemodynamic parameters.

isolated rat left atrium = experiment: Isolated rat left atrium: inotropic activity (force); settings: for EC50 / Emax: Rattus norvegicus; for EC50: read-out: EC50, left atrium (force)
Method: (§3) The inotropic and chronotropic effects of compound (Ia) of the invention were determined in vitro using, respectively, isolated rat left atrium and right atrium.
Left atrium:inotrocic activity
The atria were subjected to a 0.5 g starting tension and suspended in a bath containing aerated Krebs-Henseleit j solution with 95% O2 and […] kept at 32.C. The preparation was stimulated at a 4 Hz frequency with pulses during 5 msec each. The contraction strength was detected by an isometric transducer and recorded on a microndynamometer.
(§4) The results were expressed as the percentage of the response obtained with a maximal dose ([…]) of isoproterenol which was determined at the beginning of the test. In Table 1 the potency (EC50=effective concentration inducing the 50% of the maximal effect) and the relative intrinsic activity (expressed as α and compared with that of isoproterenol, taken=1) are shown.
(§5) The effects of the compounds were evaluated in rat isolated atria according to the previously described method.
(§6) Table 3. Potency (EC50) and intrinsic activity (α;isoproterenol=1) on the isolated rat left atrium (Inotropic activity) and right atrium (chronotropic activity).

[7] = test system: alpha-adrenergic cardiac receptors; experiment: Mechanism of cardiostimulant action: alpha-adrenergic cardiac receptors; settings: mechanism study
From the text: as §1, §2

[8] = Evaluation of acute toxicities, mouse; settings: in vivo, male, read-out: Acute toxicity mean LD50
From the text: Evaluation of acute toxicities

[9] = test system: isolated rat right atrium; experiment: Isolated rat right atrium: chronotropic activity (frequency); settings: for EC50 / Emax: Rattus norvegicus; for EC50: read-out: EC50, right atrium (frequency)
Method: as §3
Right atrium:chronotrpic activity
The preparation was prepared in the same way and under the same conditions as described above, but was not subjected to electric stimulation. Frequency was monitored by a cardiotachograph.
as §4, §5, §6

[10] = 1st of three doses (0.3-1.3 μmoles/kg)
[11] = 2nd of three doses (0.3-1.3 μmoles/kg)
[12] = 3rd of three doses (0.3-1.3 μmoles/kg)

SMILES: COc1ccc2c(c1OC)CCC(N[C@@H](C)[C@H](O)c1ccc(O)cc1)C2 (relative stereo) [CHF 1255, Erythro-5,6-Dimethoxy-2-[2-(4-hydroxyphenyl)-2-hydroxy-1-mehylethylamino]1,2,3,4-tetrahydronaphthalene hydrochloride]
- Effect of propranolol on dose-response curve ([1]; 10^-6 M propranolol): remain unchanged
- Emax ([1]; guinea pig, isoproterenol=1, without propranolol, read-out: α in absence of propranolol): 94%
- Stimulation of beta-2 adrenergic receptors (in words) ([1]; guinea-pig trachea): does not stimulate beta-2 adrenergic receptors
- EC50 ([1]; guinea-pig trachea, with 10^-6 M propranolol, read-out: EC50 in presence of propranolol): 4.6 µM
- EC50 ([1]; guinea-pig trachea, without propranolol, read-out: EC50 in absence of propranolol): 3.4 µM
- α in presence of propranolol ([1]; isoproterenol=1, with 10^-6 M propranolol): 0.72
- Contribution of catecholamines release to cardiostimulant action (catecholamines release): excluded
- Contribution of histaminergic H2 receptor stimulation to cardiostimulant action [2]: excluded
- Tachycardic and arrhythmogenic activity due to stimulation of beta-2 receptors [3]: no tachycardic and arrhythmogenic activity
- Contribution of histaminergic H1 receptor stimulation to cardiostimulant action [4]: excluded
- α-blocking activity in rabbit isolated aorta (rabbit isolated aorta): competitive inhibition of the noprepinephrine dose--response curve
- Activity against contraction by the different agents (in words) ([5]; K+, norepinephrine, serotonin): particularly active on the norepinephrine induced contraction
- Emax ([5]; K+ 40 mM, read-out: α (efficacy), K+ induced contraction): 46%
- Emax ([5]; norepinephrine 5×10^-6 M, read-out: α (efficacy), norepinephrine induced contraction): 94%
- Emax ([5]; serotonin 5×10^-7 M, read-out: α (efficacy), 5-HT induced contraction): 60%
- ED40, K+ induced contraction ([5]; dose decreasing contraction by 40%, K+ 40 mM): 1.5e-06 mol
- ED40, norepinephrine induced contraction ([5]; dose decreasing contraction by 40%, norepinephrine 5×10^-6 M): 1.2e-08 mol
- ED40, 5-HT induced contraction ([5]; dose decreasing contraction by 40%, serotonin 5×10^-7 M): 6.5e-07 mol
- Contribution of phosphodiesterase inhibition to cardiostimulant activity (phosphodiesterase): not due to phosphodiesterase inhibition
- Shift of dose-response curve by beta-1 blocker atenolol ([6]; atenolol 10^-8 to 3×10^-7 M): shifted the dose-responsive curve of CHF 1255 to the right in a dose-dependent way
- Receptor mediating the inotropic activity ([6]; mechanism study): due to the stimulation of beta-1 adrenergic receptors
- Hemodynamic effects (in words) (anesthetized dog; anesthetized dog, i.v.): more relevant than those of amrinone
- Duration of activity (anesthetized dog; dog, in vivo): long-lasting
- Hypotensive action (anesthetized dog; [10]): -17%
- Increase of the cardiac output (anesthetized dog; [10]): 17%
- Increase of the stroke volume (anesthetized dog; [10]): 10
- Reduction of the systemic arterial resistances (anesthetized dog; [10]): -28%
- Hypotensive action (anesthetized dog; [11]): -22%
- Increase of the cardiac output (anesthetized dog; [11]): 28%
- Increase of the stroke volume (anesthetized dog; [11]): 16
- Reduction of the systemic arterial resistances (anesthetized dog; [11]): -37%
- Hypotensive action (anesthetized dog; [12]): -31%
- Increase of the cardiac output (anesthetized dog; [12]): 34%
- Increase of the stroke volume (anesthetized dog; [12]): 21
- Reduction of the systemic arterial resistances (anesthetized dog; [12]): -45%
- Inotropic effect, dF/dT index (in words) (anesthetized dog; peak of first derivative of aortic flow): remarkable inotropic effect increasing the dF/dT index
- EC50 (isolated rat left atrium; Table 3, inotropic activity, rat left atrium): 3.01 µM
- EC50 (isolated rat left atrium; Table I, isolated rat left atrium, 4 Hz stimulation, confidence limits in parentheses): 3 µM
- Emax (isolated rat left atrium; Table 3, isoproterenol=1, read-out: α, left atrium (force)): 60%
- Emax (isolated rat left atrium; Table I, isoproterenol taken=1, confidence limits in parentheses, read-out: α (intrinsic activity), left atrium (force)): 60%
- Cardiostimulating potency compared with dopamine and CHF 1026 (isolated rat left atrium; Table 1 comparison): potency comparable to those of dopamine and of CHF 1026
- Intrinsic activity / type of agonism (in words) (isolated rat left atrium; beta-1 adrenergic receptors): partial agonist of beta-1 adrenergic receptors
- Potency ratio vs amrinone (times higher) (isolated rat left atrium; increase of contraction force, 50% of maximum effect, higher than amrinone): about 10 times
- Potency ratio vs xamoterol (times lower) (isolated rat left atrium; increase of contraction force, 50% of maximum effect, lower than xamoterol): about 300 times
- Contribution of alpha-adrenergic cardiac receptor stimulation to cardiostimulant action [7]: excluded
- LD50 ([8]; iv, i.v.): 65 mg/kg
- LD50 ([8]; po, os): 325 mg/kg
- EC50 ([9]; Table 3, chronotropic activity, rat right atrium): 1.32 µM
- EC50 ([9]; Table I, isolated rat right atrium, confidence limits in parentheses): 1.3 µM
- Emax ([9]; Table 3, isoproterenol=1, read-out: α, right atrium (frequency)): 160%
- Emax ([9]; Table I, isoproterenol taken=1, confidence limits in parentheses, read-out: α (intrinsic activity), right atrium (frequency)): 55%
- Chronotropic efficacy compared with xamoterol ([9]; Table 3 comparison): remarkably lower than that of xamoterol
